Assay results reported in patent US4415558A, “CRF And analogs” (The Salk Institute for Biological Studies, priority 1982, dated 1983).
“Also recorded” adds a separate entry of the source. [ ]: non-standard residue; d: D form. Nle = CCCC[C@H](N)C(=O)O

Key:
[1] = tested on: ACTH and β-END-LI secretion; experiment: ACTH and β-END-LI secretion in vivo in rat preparations
Description: (§1) The synthetic and the natural CRF were examined for their effects on the secretion of ACTH and β-endorphin in vitro and the synthetic CRF was also examined in vivo. The high potency of synthetic and natural CRF to stimulate the secretion of ACTH and β-endorphin by cultured rat pituitary cells was measured. […] The secretory response to maximal (>5 nM) concentrations of CRF is at a plateau level. In vivo doses from 30 ng to 3 μg/Kg of body weight rapidly elevated ACTH and β-endorphin-like (β-END-LI) secretions 5-20 fold.
(§2) Plasma levels of ACTH and β-END-LI are elevated for at least 5-20 minutes following the intravenous administration of CRF to nembutal-anesthesized male rats and to quiescent male or female rats with indwelling intravenous cannulae. […] Mean cartoid blood pressure in a urethane-anesthesized rat fell from 87 to 72±2 mm Hg and remained at that level for 30 minutes following an injection equal to 3 μg CRF/Kg body weight; the subsequent administration of an injection equal to 30 μg CRF/Kg body weight lowered mean blood pressure to 42±3 mm Hg for more than 2 hours.

[2] = tested on: cultured rat pituitary cells; experiment: Secretion of ACTH and β-endorphin by cultured rat pituitary cells; format: cell-based; conditions: for Stimulation of secretion of ACTH and β-END-LI (in words): general procedure set forth in Example III, in vitro or in vivo not specified
Description: as §1

[3] = Blood pressure in dogs; format: in vivo
[4] = Blood pressure in rats (mean carotid blood pressure, urethane-anesthetized rat); format: in vivo; conditions: for Effect upon blood pressure (in words): rats; for Lowering of blood pressure (in words): general procedure set forth in Example III
Description: as §2

[5] = cited from earlier work
[6] = tested on: secretion of ACTH and β-endorphin; conditions: cited from earlier work
[7] = urethane-anesthetized rat, subsequent 30 μg CRF/Kg body weight

## CC[C@H](C)[C@H](NC(=O)[C@H](CC(=O)O)NC(=O)[C@H](CC(C)C)NC(=O)[C@H](CC(C)C)NC(=O)[C@H](CCCCN)NC(=O)[C@H](CCCNC(=N)N)NC(=O)[C@H](CC(N)=O)NC(=O)[C@H](CO)NC(=O)[C@H](Cc1c[nH]cn1)NC(=O)[C@H](C)NC(=O)[C@H](CCC(N)=O)NC(=O)[C@H](CCC(N)=O)NC(=O)[C@H](C)NC(=O)[C@H](CC(C)C)NC(=O)[C@H](CCC(N)=O)NC(=O)[C@H](CC(=O)O)NC(=O)[C@H](C)NC(=O)[C@H](CCCCN)NC(=O)[C@@H](NC(=O)[C@H](CCSC)NC(=O)[C@H](CCC(=O)O)NC(=O)[C@H](CC(C)C)NC(=O)[C@@H](NC(=O)[C@H](CCC(=O)O)NC(=O)[C@H](CCCNC(=N)N)NC(=O)[C@H](CC(C)C)NC(=O)[C@H](CC(C)C)NC(=O)[C@H](Cc1c[nH]cn1)NC(=O)[C@H](Cc1ccccc1)NC(=O)[C@@H](NC(=O)[C@H](CC(C)C)NC(=O)[C@H](CC(=O)O)NC(=O)[C@H](CC(C)C)NC(=O)[C@H](CO)NC(=O)[C@@H](NC(=O)[C@@H]1CCCN1C(=O)[C@@H]1CCCN1C(=O)[C@H](CCC(=O)O)NC(=O)[C@H](CCC(N)=O)NC(=O)[C@@H](N)CO)[C@@H](C)CC)[C@@H](C)O)C(C)C)[C@@H](C)O)C(=O)N[C@@H](C)C(N)=O [natural CRF]
[1]
  Stimulation of ACTH and β-END-LI secretion in vivo (in words): stimulate ACTH and β-endorphin activies
[2]
  Stimulation of ACTH and β-endorphin secretion in vitro (in words): high potency
[2]; listed as isolated CRF
  Stimulation of ACTH and β-endorphin secretion in vitro (in words): stimulate ACTH and β-endorphin activies

## H-Ser-Gln-Glu-Pro-Pro-Ile-Ser-Leu-Asp-Leu-Thr-Phe-His-Leu-Leu-Arg-Glu-Val- Leu-Glu-Met-Thr-Lys-Ala-Asp-Gln-Leu-Ala-Gln-Gln-Ala-His-Ser-Asn-Arg-Lys-Leu-Leu-Asp-Ile-Ala-NH2 [synthetic CRF]
[1]
  Stimulation of ACTH and β-END-LI secretion in vivo (in words): stimulate ACTH and β-endorphin activies
[1]; in vivo doses from 30 ng to 3 μg/Kg of body weight
  Elevation of ACTH and β-endorphin-like (β-END-LI) secretions: 5-20 fold
[1]; listed as Synthetic CRF
  Stimulation of ACTH and β-END-LI secretion in vivo (in words): powerful stimulator of ACTH and β-END-LI secretion
[1]; intravenous administration, nembutal-anesthetized male rats and quiescent male or female rats with indwelling intravenous cannulae
  Time for which plasma levels of ACTH and β-END-LI are elevated: 5 to 20 min
[2]; cultured rat pituitary cells
  Maximal concentrations (secretory response at a plateau level): > 5 nM
[2]; cultured rat pituitary cells, concentration giving half-maximal response
  EC50: ~0.1 nM
[2]; cultured rat pituitary cells, concentration giving minimal response
  Minimal response, secretion of ACTH and β-endorphin: about 10 picomolar
[2]
  Stimulation of ACTH and β-endorphin secretion in vitro (in words): stimulate ACTH and β-endorphin activies; also recorded: high potency
[3]
  Effect upon blood pressure (in words): dramatic effect upon blood pressure
[4]; listed as CRF
  Effect upon blood pressure (in words): dramatic effect upon blood pressure
[4]; listed as Synthetic CRF
  Effect upon blood pressure (in words): substantially lower blood pressure for an extended time period
[4]; urethane-anesthetized rat, 3 μg CRF/Kg body weight
  Time blood pressure remained at lowered level: 30 min
[4]; urethane-anesthetized rat, 3 μg CRF/Kg body weight, fell from 87
  Mean carotid blood pressure after injection: 72±2 mm Hg
[4]; [7]
  Duration of lowered mean blood pressure: more than 2 hours
  Mean blood pressure after subsequent injection: 42±3 mm Hg

## CC[C@H](C)[C@H](NC(=O)[C@H](CC(=O)O)NC(=O)[C@H](CC(C)C)NC(=O)[C@H](CC(C)C)NC(=O)[C@H](CCCCN)NC(=O)[C@H](CCCNC(=N)N)NC(=O)[C@H](CC(N)=O)NC(=O)[C@H](CO)NC(=O)[C@H](Cc1c[nH]cn1)NC(=O)[C@H](C)NC(=O)[C@H](CCC(N)=O)NC(=O)[C@H](CCC(N)=O)NC(=O)[C@H](C)NC(=O)[C@H](CC(C)C)NC(=O)[C@H](CCC(N)=O)NC(=O)[C@H](CC(=O)O)NC(=O)[C@H](C)NC(=O)[C@H](CCCCN)NC(=O)[C@@H](NC(=O)[C@H](CCSC)NC(=O)[C@H](CCC(=O)O)NC(=O)[C@H](CC(C)C)NC(=O)[C@@H](NC(=O)[C@H](CCC(=O)O)NC(=O)[C@H](CCCNC(=N)N)NC(=O)[C@H](CC(C)C)NC(=O)[C@H](CC(C)C)NC(=O)[C@H](Cc1c[nH]cn1)NC(=O)[C@H](Cc1ccccc1)NC(=O)[C@@H](NC(=O)[C@H](CC(C)C)NC(=O)[C@H](CC(=O)O)NC(=O)[C@H](CC(C)C)NC(=O)[C@H](CO)NC(=O)[C@@H](NC(=O)[C@@H]1CCCN1C(=O)[C@@H]1CCCN1C(C)=O)[C@@H](C)CC)[C@@H](C)O)C(C)C)[C@@H](C)O)C(=O)N[C@@H](C)C(N)=O [[Acetyl-Pro^4]-CRF]
[2]
  Stimulation of secretion of ACTH and β-END-LI (in words): stimulates the secretion of ACTH and β-END-LI
[4]
  Lowering of blood pressure (in words): very significant lowering of blood pressure to a greater extent than CRF

## CC[C@H](C)[C@H](NC(=O)[C@@H](NC(=O)[C@H](CC(=O)O)NC(=O)[C@H](CC(C)C)NC(=O)[C@H](CC(C)C)NC(=O)[C@H](CC(C)C)NC(=O)[C@H](CCCNC(=N)N)NC(=O)[C@H](CC(N)=O)NC(=O)[C@H](CC(N)=O)NC(=O)[C@H](C)NC(=O)[C@H](C)NC(=O)[C@H](CCC(N)=O)NC(=O)[C@H](CCC(N)=O)NC(=O)[C@H](CCCCN)NC(=O)[C@H](CCC(=O)O)NC(=O)[C@H](CCCCN)NC(=O)[C@H](CCC(=O)O)NC(=O)[C@H](CCC(N)=O)NC(=O)[C@H](CCCCN)NC(=O)[C@H](CCC(=O)O)NC(=O)[C@@H](NC(=O)[C@H](CCC(=O)O)NC(=O)[C@@H](NC(=O)[C@H](CCSC)NC(=O)[C@H](CCCCN)NC(=O)[C@H](CCCNC(=N)N)NC(=O)[C@H](CC(C)C)NC(=O)[C@H](CC(C)C)NC(=O)[C@H](CCC(=O)O)NC(=O)[C@H](CC(C)C)NC(=O)[C@H](CO)NC(=O)[C@H](CC(C)C)NC(=O)[C@H](CC(=O)O)NC(=O)[C@@H](NC(=O)[C@H](CO)NC(=O)[C@@H](NC(=O)[C@@H]1CCCN1C(=O)[C@@H]1CCCN1C(=O)CNC(=O)[C@@H]1CCC(=O)N1)[C@@H](C)CC)[C@@H](C)CC)[C@@H](C)CC)[C@@H](C)CC)[C@@H](C)O)C(N)=O [Sauvagine]
[5]
  Lowering blood pressure in mammals (reported): lowering blood pressure in mammals
[6]
  Stimulating the secretion of ACTH and β-endorphin (reported): stimulating the secretion of ACTH and β-endorphin

## CC[C@H](C)[C@H](NC(=O)[C@H](CCC(=O)O)NC(=O)[C@@H](NC(=O)[C@H](CCSC)NC(=O)[C@H](CCCCN)NC(=O)[C@H](CCCNC(=N)N)NC(=O)[C@H](CC(C)C)NC(=O)[C@H](CC(C)C)NC(=O)[C@H](CCC(=O)O)NC(=O)[C@H](CC(C)C)NC(=O)[C@H](CO)NC(=O)[C@H](CC(C)C)NC(=O)[C@H](CC(=O)O)NC(=O)[C@@H](NC(=O)[C@H](CO)NC(=O)[C@@H](NC(=O)[C@@H]1CCCN1C(=O)[C@@H]1CCCN1C(=O)CNC(=O)[C@@H]1CCC(=O)N1)[C@@H](C)CC)[C@@H](C)CC)[C@@H](C)CC)C(=O)N[C@@H](CCC(=O)O)C(=O)N[C@@H](CCCCN)C(=O)N[C@@H](CCC(N)=O)C(=O)N[C@@H](CCC(=O)O)C(=O)N[C@@H](CCCCN)C(=O)N[C@@H](CCC(=O)O)C(=O)N[C@@H](CCCCN)C(=O)N[C@@H](CCC(N)=O)C(=O)N[C@@H](CCC(N)=O)C(=O)N[C@@H](C)C(=O)N[C@@H](C)C(=O)N[C@@H](CC(N)=O)C(=O)N[C@@H](CC(N)=O)C(=O)N[C@@H](CCCNC(=N)N)C(=O)N[C@@H](CC(C)C)C(=O)N[C@@H](CC(C)C)C(=O)N[C@@H](CC(C)C)C(=O)N[C@@H](CC(=O)O)C(=O)N[C@@H](C)C(=O)N[C@@H](C)C(N)=O [[Ala^39, Ala^40]-sauvagine]
[2]
  Stimulation of secretion of ACTH and β-END-LI (in words): stimulates the secretion of ACTH and β-END-LI
[4]
  Lowering of blood pressure (in words): very significant lowering of blood pressure

## H-SQEPPISLDLTFHLLREVLE[Nle]TKADQLAQQAYSNRKLLDIA-NH2 [[Nle^21, Tyr^32]-CRF]
[2]
  Stimulation of secretion of ACTH and β-END-LI (in words): stimulates the secretion of ACTH and β-END-LI
[4]
  Lowering of blood pressure (in words): very significant lowering of blood pressure to a greater extent than CRF

## H-SQEPPISIDLSFHLLREVLEMTKADQLAQQAHNNRKLLDIA-NH2 [[Ile^8, Ser^11, Asn^33]-CRF]
[2]
  Stimulation of secretion of ACTH and β-END-LI (in words): stimulates the secretion of ACTH and β-END-LI
[4]
  Lowering of blood pressure (in words): very significant lowering of blood pressure
